“Also recorded” adds a separate entry of the source. Like-named read-outs stand apart in the source and are kept apart here. Blank lines part the entries; values can stand above or below the compound they belong to.
Experiments:
[1] = molecular target: T1, P2X receptor (vas deferens) (Cavia porcellus, UniProt A0A286XVA9); test: Contraction of guinea pig isolated vas deferens
T1 sequence (A0A286XVA9 1-399): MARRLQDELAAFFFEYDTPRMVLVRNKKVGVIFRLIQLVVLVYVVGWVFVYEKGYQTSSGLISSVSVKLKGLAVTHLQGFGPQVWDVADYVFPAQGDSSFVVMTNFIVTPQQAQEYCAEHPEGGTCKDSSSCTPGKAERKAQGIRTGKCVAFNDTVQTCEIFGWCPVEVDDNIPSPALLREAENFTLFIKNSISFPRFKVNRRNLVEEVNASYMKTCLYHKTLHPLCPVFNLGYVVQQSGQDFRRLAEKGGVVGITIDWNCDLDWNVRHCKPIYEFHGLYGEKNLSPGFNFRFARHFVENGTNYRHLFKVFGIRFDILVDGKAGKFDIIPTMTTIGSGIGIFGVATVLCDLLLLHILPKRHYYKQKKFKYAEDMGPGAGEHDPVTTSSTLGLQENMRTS

[2] = test system: P2Y receptors; test: Overall activity in P2Y receptor systems
Method: Phospholipase C activity: Stimulation of inositol phosphate formation by compounds of the present invention was measured in turkey erythrocyte membranes as described by Harden et al., supra and Boyer et al., supra. The K0.5 values were averaged from 3-8 independently determined dose-response curves for each compound. Briefly, one ml of washed turkey erythrocytes was incubated in inositol-free medium (DMEM; Gibco) with 0.5-1 mCi of 2-[^3 H]myoinositol (20 Ci/mmol; American Radiolabeled Chemicals Inc., St. Louis, Mo.)for 18-24 h in a humidified atmosphere of 95% air 5% CO2 at 37° C. Erythrocyte ghosts were prepared by rapid lysis in hypotonic buffer (5 mM sodium phosphate, pH 7.4, 5 mM MgCl2, 1 mM EGTA) as described by Boyer et al., supra. Phospholipase C activity was measured in 25 μl of [^3 H]inositol-labeled ghosts (≈175 μg of protein, 200-500,000 cpm/assay) in a medium containing 424 μM CaC12, 0.91 mM MgSO4, 2 mM EGTA, 115 mM KCl, 5 mM KH2 PO4, and 10 mM Hepes, pH 7.0. Assay (100 μl or 200 μl final volume) contained 1 μM GTPγS and the indicated concentrations of nucleotide analogs. Ghosts were incubated at 30° C. for 5 min, and total [^3 H]inositol phosphates were quantitated after purification by anion exchange chromatography according to Harden et al. (supra) and Boyer et al. (supra).
Muscular relaxation/contraction: Relaxant responses mediated via P2Y receptors were examined in guinea pig taenia coli, rabbit aorta, and rabbit mesenteric artery, as described by Hoyle et al. (Br. J. Pharmacol., 107, 367-374 (1992a)), Burnstock et al., (Br. J. Pharmacol., 90, 383-391 (1987a)), and Rubino et al., (Eur. J. Pharmacol., 212, 237-240 (1992)). Contractile responses mediated via P2X receptors were examined in the guinea pig urinary bladder and vas deferens, and rabbit saphenous artery, also using standard methods (see Hoyle et al., supra., 1992; Hoyle et al., Br. J. Pharmacol., 99, 617-621 (1990); and Burnstock et al., Br. J. Pharmacol., 90, 111-120 (1987b)).

[3] = test system: P2X receptors; test: Overall activity in P2X receptor systems
[4] = molecular target: T2, P2X receptor (saphenous artery) (Oryctolagus cuniculus, UniProt G1U3D6); test: Contraction of rabbit saphenous artery; conditions: rabbit saphenous artery
T2 construct: and rabbit saphenous artery; from tissue; host or cells: rabbit saphenous artery
T2 sequence (G1U3D6 1-399): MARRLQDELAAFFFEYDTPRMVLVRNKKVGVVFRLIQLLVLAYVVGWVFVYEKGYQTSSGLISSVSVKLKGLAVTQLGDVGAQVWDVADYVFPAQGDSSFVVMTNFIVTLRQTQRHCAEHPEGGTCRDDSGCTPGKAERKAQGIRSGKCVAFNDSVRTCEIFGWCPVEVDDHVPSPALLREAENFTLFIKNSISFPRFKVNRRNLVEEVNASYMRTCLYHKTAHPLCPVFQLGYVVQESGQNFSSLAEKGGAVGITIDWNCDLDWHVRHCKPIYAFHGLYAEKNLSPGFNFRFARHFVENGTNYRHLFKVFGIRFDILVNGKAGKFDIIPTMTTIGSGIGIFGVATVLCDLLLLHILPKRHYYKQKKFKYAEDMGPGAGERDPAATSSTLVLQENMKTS
Procedure, shortened: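 Contraction of isolated rabbit saphenous artery, standard organ-bath methods; responses at 10 μM expressed as percentage of contraction produced by 1 μM α,MeATP. Highest analogue concentrations tested were 3-30 […].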

[5] = test system: P2X and P2Y receptors; test: Overall activity in the seven P2X and P2Y preparations
[6] = molecular target: T3, P2X receptor (urinary bladder) (Cavia porcellus, UniProt A0A286XVA9); test: Contraction of guinea pig isolated urinary bladder detrussor muscle; conditions: guinea pig urinary bladder
T3 construct: guinea pig isolated urinary bladder detrussor muscle; from tissue; host or cells: guinea pig isolated urinary bladder detrusor muscle

[7] = molecular target: T4, P2Y receptor (turkey erythrocyte membranes) (Meleagris gallopavo, UniProt P49652); test: Stimulation of phospholipase C (inositol phosphate formation) in turkey erythrocyte membranes; type: biochemical; conditions: for EC50 / activity/potency in words, turkey erythrocyte: turkey erythrocyte membranes; for fold less potent than ATP, turkey erythrocyte: relative to ATP
T4 construct: from tissue; host or cells: washed turkey erythrocytes, ghosts prepared by hypotonic lysis
T4 sequence (P49652 whole entry): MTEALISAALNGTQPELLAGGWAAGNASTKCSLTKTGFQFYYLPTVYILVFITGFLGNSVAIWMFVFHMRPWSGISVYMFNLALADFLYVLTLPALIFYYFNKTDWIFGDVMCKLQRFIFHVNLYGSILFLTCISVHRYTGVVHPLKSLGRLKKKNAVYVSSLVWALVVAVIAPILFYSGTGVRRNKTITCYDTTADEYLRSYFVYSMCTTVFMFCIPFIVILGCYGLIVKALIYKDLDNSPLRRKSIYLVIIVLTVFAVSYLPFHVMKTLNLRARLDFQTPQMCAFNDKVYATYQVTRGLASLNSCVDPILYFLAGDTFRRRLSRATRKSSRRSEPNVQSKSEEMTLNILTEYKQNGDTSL
Procedure, shortened: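 Erythrocytes were labelled 18-24 h at 37 °C with [3H]myoinositol, and ghosts were made by hypotonic lysis. Ghosts (≈175 μg protein) were incubated 5 min at 30 °C in Hepes buffer pH 7.0 with 1 μM GTPγS and nucleotide analogs. Total [3H]inositol phosphates were purified by anion exchange; K0.5 averaged from 3-8 dose-response curves.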

[8] = test system: P2Y receptor (aorta endothelium); test: Relaxation of noradrenalin-contracted rabbit aorta; conditions: for relaxation pD2, aorta: rabbit aorta, log molar units; for activity/potency/selectivity in words, aorta: rabbit aorta endothelial P2Y receptor
Method: In FIG. 14, the x-axis is also marked in units of the negative log of the molar concentration of applied putative P2Y receptor agonists and the y-axis is marked in units of the percentage relaxation of the 1 μM noradrenalin-induced contraction of rabbit aorta endothelium. In FIGS. 15-16, the x-axis is marked in units of the negative log of the molar concentration of applied putative p^2X receptor agonists and the y-axis is marked in units of the percentage contraction relative to a standard dose of KCl (i.e., 60 mM), as assessed in guinea pig isolated urinary bladder detrussor muscle (FIG. 15) and guinea pig isolated vas deferens (FIG. 16).

[9] = molecular target: P2Y receptor (mesenteric artery); test: Relaxation of rabbit mesenteric artery; conditions: for relaxation pD2, mes. artery: log molar units
[10] = molecular target: T5, adenylyl cyclase linked P2Y receptor (C6 rat glioma cells) (Rattus norvegicus, UniProt Q9EPX4); test: Inhibition of adenylyl cyclase in C6 rat glioma cells; type: cell-based; conditions: versus phospholipase C linked receptor
T5 construct: endogenous in cells; host or cells: C6 rat glioma cells
T5 sequence (Q9EPX4 whole entry): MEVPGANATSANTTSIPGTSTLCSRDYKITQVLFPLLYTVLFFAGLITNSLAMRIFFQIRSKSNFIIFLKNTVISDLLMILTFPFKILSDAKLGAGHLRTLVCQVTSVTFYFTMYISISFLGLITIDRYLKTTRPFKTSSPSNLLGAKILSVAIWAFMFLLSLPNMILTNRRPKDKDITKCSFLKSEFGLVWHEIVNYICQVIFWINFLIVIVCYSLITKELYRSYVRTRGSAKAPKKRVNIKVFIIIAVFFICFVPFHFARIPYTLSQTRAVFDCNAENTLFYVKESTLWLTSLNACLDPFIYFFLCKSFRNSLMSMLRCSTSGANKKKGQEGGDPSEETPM
Method: This example illustrates the inhibition of adenylyl cyclase activity in C6 rat glioma cells, as a function of the presence of certain ATP analogs in the medium in which the C6 cells were cultured.
Cells were labelled by incubation for 2 hours in the presence of 1 to 2 mCi of tritiated adenine/ml in the medium. Cells were washed twice with HEPES (20 mM, pH 7.5)-buffered Eagle's medium and then preincubated for 10 minutes at 37° C. with fresh medium containing 200 μM 3-isobutyl-1-methylxanthine. Agonist incubations were initiated by the simultaneous addition of 10 μM isoproterenol and various concentrations of nucleotides. The reactions were stopped after 10 minutes of aspiration of the nucleotide-containing medium and addition of 1 ml of ice-cold 5% trichloroacetic acid.

[11] = molecular target: T6, P2Y receptor (taenia coli) (Cavia porcellus, UniProt P59902); conditions: cited from earlier work
T6 construct: Relaxant responses mediated via P2Y receptors were examined in guinea pig taenia coli; from tissue; host or cells: guinea pig taenia coli (carbachol-contracted)
T6 sequence (P59902 whole entry): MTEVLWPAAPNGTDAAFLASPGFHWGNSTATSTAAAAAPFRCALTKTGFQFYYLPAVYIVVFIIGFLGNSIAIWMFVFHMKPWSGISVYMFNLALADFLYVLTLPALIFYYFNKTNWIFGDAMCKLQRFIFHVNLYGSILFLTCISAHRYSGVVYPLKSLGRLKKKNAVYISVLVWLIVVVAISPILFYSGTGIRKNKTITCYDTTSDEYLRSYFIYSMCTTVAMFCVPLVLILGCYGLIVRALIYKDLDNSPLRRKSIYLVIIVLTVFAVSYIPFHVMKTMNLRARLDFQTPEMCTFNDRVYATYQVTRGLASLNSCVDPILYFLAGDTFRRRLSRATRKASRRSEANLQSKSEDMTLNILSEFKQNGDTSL

[12] = molecular target: T6, P2Y receptor (taenia coli); test: Relaxation of carbachol-contracted guinea pig taenia coli; conditions: for activity/potency in words, taenia coli: guinea pig taenia coli
Procedure, shortened: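 Guinea pig taenia coli precontracted with 50 nM carbachol; relaxation to applied P2Y agonists expressed as percentage relaxation against negative log molar agonist concentration.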

[13] = listed as 3'-Benzylamino-3'-deoxy-ATP
[14] = listed as 3'-benzylamino-3'-deoxy-ATP
[15] = listed as 3'-benzylamino-3'-deoxyATP
[16] = mean ± S.E.M. for at least 2 determinations, read-out: phosphatidyl inositol metabolism (K0.5, nM) erythrocyte
[17] = listed as adenosine-N1-oxide triphosphate

- activity/potency in words, vas deferens [1, 13]: substantially more potent than ATP
- activity/potency in words, vas deferens [1, 15]: high potency
- overall activity in words, P2Y systems ([2]; listed as 3'-benzylamino-3'deoxyATP): inactive in the P2Y receptor systems
- overall activity in words, P2X systems [3]: specificity for P2X receptors
- activity/potency in words, saphenous artery [4]: inactive
- activity/potency in words, bladder [6, 13]: substantially more potent than ATP
- activity/potency in words, bladder [6, 15]: high potency
- EC50 [7, 16]: > 100000 nM
SMILES: Nc1ncnc2c1ncn2[C@@H]1O[C@H](COP(=O)(O)OP(=O)(O)OP(=O)(O)O)[C@@H](NCc2ccccc2)[C@H]1O [3'-Benzylamino-3'-deoxyATP, 3'-N-Benzylamino-3'-deoxyadenosine 5'-triphosphate]
- activity/potency in words, vas deferens [1]: the most potent agonist at vas deferens P2X receptors
- activity/potency in words, vas deferens [1, 14]: potent agonists in the vas deferens and urinary bladder
- overall activity in words, P2Y systems [2]: either inactive or only a weak agonist in P2Y -systems
- activity/potency in words, saphenous artery [4, 14]: at best weak agonists in the saphenous artery
- activity/potency in words, saphenous artery [4, 15]: not rabbit saphenous artery P2X receptors
- overall activity in words, all preparations [5]: active only in the vas deferens and urinary bladder
- activity/potency in words, bladder [6]: highly potent at urinary bladder P2X receptors
- activity/potency in words, bladder [6, 14]: potent agonists in the vas deferens and urinary bladder

SMILES: Nc1nc(Cl)nc2c1ncn2[C@@H]1O[C@H](COP(=O)(O)OP(=O)(O)OP(=O)(O)O)[C@@H](O)[C@H]1O [2-Cl-ATP, 2-chloro-ATP, reference compound]
- relaxation pD2, aorta [8]: 5.8
- relaxation pD2, mes. artery [9]: 6.2
- selectivity for the adenylyl cyclase linked receptor, in words [10]: not observed
- relaxation pD2, taenia coli ([11]; guinea pig taenia coli, log molar units, footnote e: literature data): 7.2
- EC50 [7, 16]: 72 ± 19 nM
- EC50 ([7]; read-out: K0.5): 72 nM

SMILES: CNc1ncnc2c1ncn2[C@@H]1O[C@H](COP(=O)(O)OP(=O)(O)OP(=O)(O)O)[C@@H](O)[C@H]1O [N^6 -Me-ATP, N^6 -Methyl-adenosine 5'-triphosphate]
- activity/potency/selectivity in words, aorta [8]: significantly less activated
- activity/potency in words, mesenteric artery [9]: not activated at concentrations of the N^6 -methyl derivative as high as 10^-5 M
- EC50 [12]: 1.58 µM
- activity/potency in words, taenia coli ([12]; listed as N^6 -methyl ATP): equipotent with ATP in the taenia coli
- activity/potency in words, taenia coli ([12]; listed as N^6 -methylATP): selectivity; also recorded: at an equal level as if activated by ATP itself
- selectivity for the adenylyl cyclase linked receptor, in words [10]: slightly selective of the phospholipase C-linked receptor
- overall activity in words, P2Y systems [2]: inactive in vascular smooth muscle
- overall activity in words, P2X systems ([3]; listed as N^6 -methyl ATP): inactive in P2X preparations
- overall activity in words, P2X systems ([3]; listed as N^6 -methyl-ATP): inactive in the P2X receptor systems
- fold less potent than ATP, turkey erythrocyte [7]: 7 -fold
- EC50 [7, 16]: 19000 nM

SMILES: Nc1ncnc2c1ncn2[C@@H]1O[C@H](COP(O)(=S)OP(=O)(O)OP(=O)(O)O)[C@@H](O)[C@H]1O (stereo partly drawn) [ATP-α-S (S-isomer), reference compound]
- relaxation pD2, mes. artery [9]: 6.6
- fold more potent than ATP, taenia coli ([11]; relative to ATP, see Burnstock et al. 1984): approximately 10 -fold
- EC50 ([7]; phosphatidyl inositol metabolism (K0.5, nM) erythrocyte, mean ± S.E.M. for at least 2 determinations): 8930 ± 4440 nM
- fold less potent than ATP, turkey erythrocyte [7]: 2 -fold

SMILES: Nc1c2ncn([C@@H]3O[C@H](COP(=O)(O)OP(=O)(O)OP(=O)(O)O)[C@@H](O)[C@H]3O)c2nc[n+]1[O-] [Adenosine N1-oxide 5'-triphosphate, adenosine N1-oxide 5'-triphosphate, reference compound]
- activity/potency/selectivity in words, aorta [8]: selective for the endothelial receptors of the rabbit aorta versus the mesenteric artery and taenia coli
- activity/potency/selectivity in words, aorta [8, 17]: much more potent than ATP
- relaxation pD2, aorta [8]: 6.7
- activity/potency in words, mesenteric artery [9]: no activity at the mesenteric artery P2Y receptor
- EC50 [12]: 12.6 µM
- overall activity in words, P2Y systems [2]: specific for P2Y receptors
- overall activity in words, P2X systems [3]: inactive in the P2X receptor systems
- activity/potency in words, turkey erythrocyte [7]: somewhat active in turkey erythrocytes
- activity/potency in words, turkey erythrocyte [7, 17]: less potent than ATP at the turkey erythrocyte P2Y receptor
- EC50 [7, 16]: 16900 nM
